Measurements taken from patent US20090062326A1, “M3 MUSCARINIC RECEPTOR ANTAGONISTS FOR TREATMENT OF M3 MUSCARINIC RECEPTOR-EXPRESSING TUMORS” (priority 2006, published 2009).
Where two headings read alike, the source gives them in different places.

Columns and labels:
[1] = overall animal weight of treated nude mice; format: in vivo, mouse; settings: darifenacin treatment
Procedure: (§1) Tumors were allowed to grow for one week, then drug administration was initiated and continued for the next 4 weeks. Drugs were administered by subcutaneously-implanted osmotic minipumps (Alzet model# 2004). Atropine and darifenacin were dissolved in 50% DMSO/50% phosphate-buffered saline. Atropine was delivered at a dose of 10 mg/kg per day; darifenacin (Novartis Pharma AG, Basel, Switzerland) was delivered at doses of 0.3, 1.0 and 3.0 mg/kg per day. Control animals received minipumps filled with 50% DMSO/50% phosphate-buffered saline.

H82 cells [2] = experiment: H82 SCLC tumor growth in nude mice, subcutaneous minipump; format: in vivo, mouse
Procedure: Mice (NU/NU, Charles River Laboratories) were injected with SCLC tumor cells (NCI-H82 cells, American Type Culture Collection (ATCC); Manassas, Va.), treated with drug and tumor growth monitored. The H82 cells express M3 muscarininc receptor (see Song et al., Cancer Res. 63:214-21, 2003). Nude mice, 5-7 weeks old were housed in a pathogen-free room in microisolators with autoclaved bedding, and fed autoclaved rodent chow and water.
H82 cells were first grown in RPMI-1640+ITS (insulin (5 μg/ml), transferrin (5 μg/ml), sodium selenite (5 ng/ml)). Cells were collected, centrifuged and resuspended in fresh RPMI-1640+ITS at a concentration of 5×10^6 cell/0.25 ml. Cells were then mixed with an equal volume of matrigel (BD Biosciences) to give a final concentration of 5×10^6 cell/0.5 ml and 0.5 ml of this cell suspension was then injected subcutaneously into the right flank of each mouse.
as §1
(§2) Tumor volume was determined weekly by measuring with calipers (volume=height×width×depth). Mice were euthanized after 4 weeks of drug administration. 10 animals were used per group. At sacrifice tumors were removed and weighed. Part of the tumor was fixed for histologic examination of tumor morphology and part was frozen for RNA and protein analyses.

MAPK phosphorylation = MAPK phosphorylation in tumors removed from treated mice; format: in vivo, mouse; settings: tumors removed from darifenacin-treated mice
Procedure: as §2
(§3) ACh content of control tumor samples was 420±110 pmol/g which, corresponds to 4×10^−7 M, assuming uniform distribution in the tumor. These levels of ACh are high enough to increase MAPK phosphorylation.

SCLC cell lines = experiment: in vitro cell proliferation assay (Cell-Titer Blue); format: cell-based, human
Procedure: SCLC cell lines (HA-E, SV-E, LV-E, BK-T, HG-E, AD-A, LD-T, H69 (HTB-119), H82 (HTB-175), H146 (HTB 173), H187 (CRL-5804), H524 (CRL-5831), H526 (CRL-5811), H740 (CRL-5840), H841 (CRL-5845), H1048 (CRL-5853), H1105 (CRL-5856), H1417 (CRL-5869), H1694 (CRL-5888). H1836 (CRL-5898), H1876 (CRL-5902), H2029 (CRL-5913), H2195 (CRL-5931), and H2198 (CRL-5933)), were grown in RPMI 1640 medium (Mediatech, Herndon Va.) supplemented with 0-10% fetal bovine serum (Hyclone, Logan, Utah) and ITS (5 μg/ml insulin, 5 μg/ml transferrin, 5 ng/ml sodium selenite (BD Biosciences, San Jose, Calif.)) plus 100 units/ml penicillin, […] streptomycin, and […] amphotericin (Invitrogen, Carlsbad Calif.) at 37° C. in a humidified 5% CO2 atmosphere.
(§4) For in vitro cell proliferation assays, cells were suspended at a concentration of 50,000 cells/ml and pipetted up and down to break up cell clumps. 100 μl cell suspension was added to each well of a 96-well plate. 100 μl darifenacin at concentrations of 2×10^−5, 2×10^−6, 2×10^−7, 2×10^−8, 2×10^−9 M and vehicle control were then added to wells. Every three days, half the volume of the media was changed and at 0, 3, 6, 9 and 12 days, cell number was determined with the Cell-Titer Blue reagent (Promega, Madison Wis.) which measures the production of the fluorescent product of resorufin from resazurin by metabolically active cells.

Akt phosphorylation = Akt phosphorylation in tumors removed from treated mice; format: in vivo, mouse; settings: tumors removed from darifenacin-treated mice
Procedure: as §2, §3

[3] = plasma darifenacin concentration in nude mice; format: in vivo, mouse; settings: s.c. minipump; for concentration at 4 weeks: mouse, plasma, sc
Procedure: FIG. 4 is a bar graph showing the relation of nude mouse darifenacin dose to concentration of darifenacin achieved in mouse blood. Dashed lines show concentration of darifenacin obtained in humans treated with 30 mg extended release darifenacin per day.
as §1
Thus significant reduction in SCLC growth can be achieved at clinically relevant doses of M3 mAChR antagonists.

SCLC cell line H82 = experiment: H82 cell proliferation with subtype-selective mAChR antagonists; format: cell-based, human
Procedure: as §4

[4] = tested on: lung, pancreas and esophagus; settings: nicotine for 3 weeks vs control mice
Procedure: At the end of 3 weeks, bromodeoxy uridine (BrdU) will be injected ip, 50 mg/kg, then 24 hours later mice will be sacrificed and selected tissues removed to measure cell proliferation. Tissues removed will include lung, pancreas and esophagus, tumors of which are associated with smoking. Tissues will be sectioned and BrdU incorporation into cells determined so as to determine the number of replicating cells per section.

H82 cells [5] = experiment: H82 tumors in nude mice receiving nicotine (planned); format: in vivo, mouse; settings: nicotine 2.0 mg/kg/day by minipump
Procedure: Nude mice are administered H82 cells as described in Example 3. […] Nicotine (nicotine bitartrate, Sigma) is dissolved in water at a concentration to deliver 2.0 mg/kg/day; and will be administered by a second minipump. Tumor volume will be determined weekly as described in the Examples above, and mice euthanized after 4 weeks of drug administration. At sacrifice tumors are removed and weighed. Part of the tumor can be fixed for histologic examination of tumor morphology and part frozen for RNA and protein analyses.

H82 SCLC cells = H82 SCLC cells incubated with nicotine; FIG. 6
Procedure: H82 SCLC cells were incubated with nicotine for the times shown and secretion of ACh into the medium was measured.

[6] = up to 10^−5 mol/L, nine days of treatment

For `NC(=O)C(c1ccccc1)(c1ccccc1)[C@@H]1CCN(CCc2ccc3c(c2)CCO3)C1` [darifenacin, (S)-2-{1-[2-(2,3-dihydrobenzofuran-5-yl)ethyl]-3-pyr-rolidinyl}-2,2-diphenyl-acetamide], the overall animal weight [1] was “No significant effects”, the “tumor size (volume by calipers)” value (H82 cells [2]; 0.3, 1.0 and 3.0 mg/kg per day s.c. minipump, weeks 1-5, FIG. 2) was “dosewise-reduction” and the “histology of tumor cells compared to controls” value (H82 cells [2]; highest dose of darifenacin) was “larger in size, with increased-cytoplasm and less nuclear molding”. The “inhibition of tumor size, statistics” value (H82 cells [2]; largest dose (3.0 mg/kg per day), FIG. 2) was “statistically significant”, the tumor weight (H82 cells [2]; tumors removed and weighed at end of 5 weeks, FIG. 3) was “significant decrease” and the “levels of MAPK phosphorylation in the tumors” value (MAPK phosphorylation) was “significantly decreased”. The “cell growth in five SCLC cell lines” value (SCLC cell lines; 10 μM darifenacin, H187, H1048, H1836, H1876, H520, FIGS. 1A-E) was “responsive”, the “SCLC cell lines with significantly reduced proliferation” value (SCLC cell lines; 20 SCLC cell lines tested) was 14 out of 20 and the “proliferation of non-responding cell lines” value (SCLC cell lines; cell lines LV-E, AD-A, L-D-T, H69, H1417, H2198) was “not affected”. The “Akt phosphorylation in the tumors” value (Akt phosphorylation) was “no significant effects”, the concentration at 4 weeks ([3]; 3 mg/kg per day, read-out: average plasma darifenacin concentration at which tumor growth was reduced) was 9.4 ± 0.3 ng/mL and the concentration at 4 weeks ([3]; FIG. 4, read-out: plasma darifenacin concentrations at which inhibition of tumor growth was achieved) was 3 to 10 ng/mL. The “average plasma darifenacin concentration” value [3] was ~25 nM and the “average plasma darifenacin concentration at which tumor growth was reduced” value [3] was 9.4 ± 0.97 ng/mL.
For `CN1[C@@H]2CC[C@H]1C[C@@H](OC(=O)C(CO)c1ccccc1)C2` (some centres unmarked) [atropine], the “tumor growth (tumor weight)” value (H82 cells [2]; 10 mg/kg per day s.c. minipump, weeks 1-5, FIG. 5) was “do not reduce or inhibit tumor growth”.
For `Cl.O[Si](CCCN1CCCCC1)(c1ccc(F)cc1)C1CCCCC1` (centres unmarked) [P-F-HHSiD, hexahydro-sila-difenidol hydrochloride, p-fluoro analog], the H82 cell proliferation (SCLC cell line H82; 10^−5 mol/L, after nine days) was “significantly reduced cell proliferation”.
For `O=C(O[C@H]1C[C@H]2CC[C@@H](C1)[N+]21CCCC1)C(O)(c1ccccc1)c1ccccc1` [trospium], the tumor growth (H82 cells [2]; stated for nonselective antagonists, no dose or test described) was “do not reduce or inhibit tumor growth”.
With `CN1CCCC1c1cccnc1` (centres unmarked) [nicotine] the “replicating cells in tissue (BrdU incorporation)” value [4] was “more replicating cells”, the “effect of nicotine on tumor growth” value (H82 cells [5]) was “grow faster” and the “acetylcholine secretion into the medium” value (H82 SCLC cells) was “stimulates acetylcholine secretion”.
In the case of `CN1CCN(CC(=O)N2c3ccccc3C(=O)Nc3cccnc32)CC1` [pirenzepine], the H82 cell proliferation (SCLC cell line H82; [6]) is reported as “no detectable effect”.
In the case of `C[N+]1(C)CCC(OC(=O)C(c2ccccc2)c2ccccc2)CC1.[I-]` [4-DAMP, 4-diphenylacetoxy-N-methylpiperidine methiodide], the H82 cell proliferation (SCLC cell line H82; 10^−9 mol/L to 10^−5 mol/L, after nine days) is reported as “significantly reduced cell proliferation”.
In the case of `CCN(CC)CC1CCCCN1CC(=O)N1c2ccccc2C(=O)Nc2cccnc21` (centres unmarked) [AFDX-1116], the H82 cell proliferation (SCLC cell line H82; [6]) is reported as “no detectable effect”.
